In patent US20250114357A1, “BIFUNCTIONAL PROTAC AND MOLECULAR GLUE COMPOUNDS AND METHODS OF USE THEREOF” (Biolexis Therapeutics, Inc., priority 2023, published 2025):
pIC50: −log10 of the molar value.

What follows are compounds tested against T1, CDK9/CycT1 (Homo sapiens, UniProt P50750) (assay: ADP-Glo Kinase Assay). Conditions: Table 1; assay not given.
T1 construct: purchased SignalChem
Format: biochemical
Experimental: ADP-Glo assay kit is purchased from Promega and the CDK9/CycT1 protein and PDKtide substrate are purchased from SignalChem. Compounds of Structure (I) are dosed in 10-dose IC50 mode in duplicate with 3-fold serial dilution starting at 100 μM. The reaction is started by pre-incubating 4 μL of protein (20 nM), 2 μL of substrate (100 μM), and 2 μL of serial diluted drug in 1× assay buffer (50 mM HEPES, 3 mM MgCl2, 3 mM MnCl2, and 1 mM DTT) for 30 minutes. After pre-incubating, 4 μL of ATP (1 μM) is added to each well and incubated for an additional 90 minutes. The ADP-Glo Reagent (10 μL) and Kinase Detection Reagent (20 μL) are added to each well and incubated as recommended by Promega. The reaction is quantified by measuring luminescence and the IC50 is calculated using GraphPad Prism software.

T1 sequence (P50750 whole entry): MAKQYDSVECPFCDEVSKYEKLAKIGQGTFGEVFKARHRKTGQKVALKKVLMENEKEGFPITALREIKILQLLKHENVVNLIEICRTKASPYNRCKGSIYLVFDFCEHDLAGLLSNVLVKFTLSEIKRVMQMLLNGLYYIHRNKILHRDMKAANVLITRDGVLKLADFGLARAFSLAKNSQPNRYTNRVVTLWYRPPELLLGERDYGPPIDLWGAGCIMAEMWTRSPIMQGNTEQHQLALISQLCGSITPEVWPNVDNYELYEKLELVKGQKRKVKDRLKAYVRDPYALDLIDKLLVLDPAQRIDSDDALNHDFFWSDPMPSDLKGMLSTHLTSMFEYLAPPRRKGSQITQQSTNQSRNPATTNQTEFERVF
T1 sequence (O60563 whole entry partner): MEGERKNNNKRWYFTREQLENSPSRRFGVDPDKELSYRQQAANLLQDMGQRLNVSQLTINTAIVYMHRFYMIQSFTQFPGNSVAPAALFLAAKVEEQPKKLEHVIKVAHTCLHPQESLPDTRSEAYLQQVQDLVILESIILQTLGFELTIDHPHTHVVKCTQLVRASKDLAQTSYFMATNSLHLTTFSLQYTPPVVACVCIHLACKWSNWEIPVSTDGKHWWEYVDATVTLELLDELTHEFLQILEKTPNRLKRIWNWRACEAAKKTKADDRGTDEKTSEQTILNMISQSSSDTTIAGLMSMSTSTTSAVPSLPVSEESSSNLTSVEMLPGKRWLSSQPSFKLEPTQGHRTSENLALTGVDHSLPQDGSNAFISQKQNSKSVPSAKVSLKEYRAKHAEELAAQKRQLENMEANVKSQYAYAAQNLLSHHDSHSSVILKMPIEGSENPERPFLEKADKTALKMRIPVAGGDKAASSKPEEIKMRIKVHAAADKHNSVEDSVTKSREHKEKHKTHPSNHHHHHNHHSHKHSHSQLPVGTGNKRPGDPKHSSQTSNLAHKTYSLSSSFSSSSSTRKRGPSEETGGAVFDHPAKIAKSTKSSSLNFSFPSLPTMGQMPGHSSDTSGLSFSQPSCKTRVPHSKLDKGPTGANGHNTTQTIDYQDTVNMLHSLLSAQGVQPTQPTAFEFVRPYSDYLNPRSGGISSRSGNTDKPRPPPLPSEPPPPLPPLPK

SMILES | pIC50
CC(C)c1c2cc(-c3ccnc(N[C@H]4CC[C@H](NCCCCCc5cccc6c5C(=O)N(C5CCC(=O)NC5=O)C6=O)C4)n3)ccc2nn1C (stereo partly drawn) [Compound I-2, 2-(2,6-dioxopiperidin-3-yl)-4-(5-(((1S,3S)-3-((4-(3-isopropyl-2-methyl-2H-indazol-5-yl)pyrimidin-2-yl)amino)cyclopentyl)amino)pentyl)isoindoline-1,3-dione] | 6.00 to 8.30
CC(C)c1c2cc(-c3ccnc(N[C@H]4CC[C@H](NC(=O)N5CCN(CCCCCc6cccc7c6C(=O)N(C6CCC(=O)NC6=O)C7=O)CC5)C4)n3)ccc2nn1C (stereo partly drawn) [Compound I-3, 4-(5-(2-(2,6-dioxopiperidin-3-yl)-1,3-dioxoisoindolin-4-yl)pentyl)-N-((1S,3S)-3-((4-(3-isopropyl-2-methyl-2H-indazol-5-yl)pyrimidin-2-yl)amino)cyclopentyl)piperazine-1-carboxamide] | ≥ 8.30
CC(C)c1c2cc(-c3ccnc(N[C@H]4CC[C@H](NC(=O)N5CCN(CCCCCc6ccc7c(c6)CN(C6CCC(=O)NC6=O)C7=O)CC5)C4)n3)cc(F)c2nn1C (stereo partly drawn) [Compound I-6, 4-(5-(2-(2,6-dioxopiperidin-3-yl)-1-oxoisoindolin-5-yl)pentyl)-N-((1S,3S)-3-((4-(7-fluoro-3-isopropyl-2-methyl-2H-indazol-5-yl)pyrimidin-2-yl)amino)cyclopentyl)piperazine-1-carboxamide] | ≥ 8.30
CC(C)c1c2cc(-c3ccnc(N[C@H]4CC[C@H](NCc5cccc6c5CN(C5CCC(=O)NC5=O)C6=O)C4)n3)cc(F)c2nn1C (stereo partly drawn) [Compound I-10, 3-(4-((((1S,3S)-3-((4-(7-fluoro-3-isopropyl-2-methyl-2H-indazol-5-yl)pyrimidin-2-yl)amino)cyclopentyl)amino)methyl)-1-oxoisoindolin-2-yl)piperidine-2,6-dione] | ≥ 8.30
CC(C)c1c2cc(-c3ccnc(N[C@H]4CC[C@H](NCc5ccc(-c6ccccn6)cc5)C4)n3)ccc2nn1C [Compound I-11, (1S,3S)-N^1-(4-(3-isopropyl-2-methyl-2H-indazol-5-yl)pyrimidin-2-yl)-N^3-(4-(pyridin-2-yl)benzyl)cyclopentane-1,3-diamine] | 6.00 to 8.30

Now from value to compound:

pIC50 | SMILES
6.00 to 8.30 | CC(C)c1c2cc(-c3ccnc(N[C@H]4CC[C@H](NCCCCCc5cccc6c5CN(C5CCC(=O)NC5=O)C6=O)C4)n3)ccc2nn1C (stereo partly drawn) [Compound I-1, 3-(4-(5-(((1S,3S)-3-((4-(3-isopropyl-2-methyl-2H-indazol-5-yl)pyrimidin-2-yl)amino)cyclopentyl)amino)pentyl)-1-oxoisoindolin-2-yl)piperidine-2,6-dione]
≥ 8.30 | CC(C)c1c2cc(-c3ccnc(N[C@H]4CC[C@H](NC(=O)N5CCN(CCCCCc6cccc7c6CN(C6CCC(=O)NC6=O)C7=O)CC5)C4)n3)ccc2nn1C (stereo partly drawn) [Compound I-4, 4-(5-(2-(2,6-dioxopiperidin-3-yl)-1-oxoisoindolin-4-yl)pentyl)-N-((1S,3S)-3-((4-(3-isopropyl-2-methyl-2H-indazol-5-yl)pyrimidin-2-yl)amino)cyclopentyl)piperazine-1-carboxamide]
≥ 8.30 | CC(C)c1c2cc(-c3ccnc(N[C@H]4CC[C@H](NC(=O)N5CCN(CCCCCc6ccc7c(c6)C(=O)N(C6CCC(=O)NC6=O)C7=O)CC5)C4)n3)cc(F)c2nn1C (stereo partly drawn) [Compound I-5, 4-(5-(2-(2,6-dioxopiperidin-3-yl)-1,3-dioxoisoindolin-5-yl)pentyl)-N-((1S,3S)-3-((4-(7-fluoro-3-isopropyl-2-methyl-2H-indazol-5-yl)pyrimidin-2-yl)amino)cyclopentyl)piperazine-1-carboxamide]
6.00 to 8.30 | CC(C)c1c2cc(-c3ccnc(N[C@H]4CC[C@H](NCc5cccc6c5C(=O)N(C5CCC(=O)NC5=O)C6=O)C4)n3)ccc2nn1C (stereo partly drawn) [Compound I-7, 2-(2,6-dioxopiperidin-3-yl)-4-((((1S,3S)-3-((4-(3-isopropyl-2-methyl-2H-indazol-5-yl)pyrimidin-2-yl)amino)cyclopentyl)amino)methyl)isoindoline-1,3-dione]
≥ 8.30 | CC(C)c1c2cc(-c3ccnc(N[C@H]4CC[C@H](NCc5cccc6c5CN(C5CCC(=O)NC5=O)C6=O)C4)n3)ccc2nn1C (stereo partly drawn) [Compound I-8, 3-(4-((((1S,3S)-3-((4-(3-isopropyl-2-methyl-2H-indazol-5-yl)pyrimidin-2-yl)amino)cyclopentyl)amino)methyl)-1-oxoisoindolin-2-yl)piperidine-2,6-dione]
6.00 to 8.30 | CC(C)c1c2cc(-c3ccnc(N[C@H]4CC[C@H](NCc5cccc6c5C(=O)N(C5CCC(=O)NC5=O)C6=O)C4)n3)cc(F)c2nn1C (stereo partly drawn) [Compound I-9, 2-(2,6-dioxopiperidin-3-yl)-4-((((1S,3S)-3-((4-(7-fluoro-3-isopropyl-2-methyl-2H-indazol-5-yl)pyrimidin-2-yl)amino)cyclopentyl)amino)methyl)isoindoline-1,3-dione]
6.00 to 8.30 | CC(C)c1c2cc(-c3ccnc(N[C@H]4CC[C@H](NCc5ccc(-c6ccccn6)cc5)C4)n3)cc(F)c2nn1C [Compound I-12, (1S,3S)-N^1-(4-(7-fluoro-3-isopropyl-2-methyl-2H-indazol-5-yl)pyrimidin-2-yl)-N^3-(4-(pyridin-2-yl)benzyl)cyclopentane-1,3-diamine]
